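The compound was tested at five concentrations on cells cultured in 96-well plates, with a 48-hour exposure period. Abbreviation: GI50, concentration required for 50% inhibition of growth.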 Active and inactive are the calls of the source. Cut-off read from the data, not from the text of the source: active = GI50 up to about 1.1 µM and inactive = higher.
Columns and labels:
Experiment in all cases: NCI-60 cell line screen, 48 h
SF-268 = tested on: SF-268
SN12C = tested on: SN12C
NCI-H226 = tested on: NCI-H226
SK-OV-3 = tested on: SK-OV-3
RXF 631 = tested on: RXF 631
IGROV-1 = tested on: IGROV-1
786-0 = tested on: 786-0
HOP-18 = tested on: HOP-18
OVCAR-3 = tested on: OVCAR-3
XF498 = tested on: XF498
UO-31 = tested on: UO-31
OVCAR-5 = tested on: OVCAR-5
EKVX = tested on: EKVX
DLD-1 = tested on: DLD-1
TK-10 = tested on: TK-10
NCI-H460 = tested on: NCI-H460
RPMI-8226 = tested on: RPMI-8226
HT-29 = tested on: HT-29
NCI-H23 = tested on: NCI-H23
COLO 205 = tested on: COLO 205
SF-539 = tested on: SF-539
HCT-116 = tested on: HCT-116
RXF 393 = tested on: RXF 393
HL-60 = tested on: HL-60
A549 = tested on: A549
KM12 = tested on: KM12
M19-MEL = tested on: M19-MEL
NCI-H522 = tested on: NCI-H522
SNB-19 = tested on: SNB-19
LXFL 529 = tested on: LXFL 529
SR = tested on: SR
U-251 = tested on: U-251
LOX IMVI = tested on: LOX IMVI
SK-MEL-28 = tested on: SK-MEL-28
OVCAR-4 = tested on: OVCAR-4
CCRF-CEM = tested on: CCRF-CEM
HOP-92 = tested on: HOP-92
K562 = tested on: K562
OVCAR-8 = tested on: OVCAR-8
DMS-273 = tested on: DMS-273
SK-MEL-2 = tested on: SK-MEL-2
UACC-257 = tested on: UACC-257
SF-295 = tested on: SF-295
HCT-15 = tested on: HCT-15
MOLT-4 = tested on: MOLT-4
HOP-62 = tested on: HOP-62
UACC-62 = tested on: UACC-62
ACHN = tested on: ACHN
KM-20L2 = tested on: KM-20L2
SW-620 = tested on: SW-620
M14 = tested on: M14
SK-MEL-5 = tested on: SK-MEL-5
Malme-3M = tested on: Malme-3M
SNB-75 = tested on: SNB-75
HCC 2998 = tested on: HCC 2998
CAKI-1 = tested on: CAKI-1
DMS-114 = tested on: DMS-114
SNB-78 = tested on: SNB-78
A498 = tested on: A498

Measured: GI50

COc1ccc(CCN(C)C2CCC(C#N)(c3ccc(OC)c(OC)c3)CC2)cc1OC (stereo not given)
inactive: SF-268 > 100 µM | SN12C > 100 µM | NCI-H226 > 100 µM | SK-OV-3 > 100 µM | RXF 631 61.2 µM | IGROV-1 > 100 µM | 786-0 > 100 µM | HOP-18 > 100 µM | OVCAR-3 > 100 µM | XF498 > 100 µM | UO-31 > 100 µM | OVCAR-5 > 100 µM | EKVX > 100 µM | DLD-1 > 100 µM | TK-10 > 100 µM | NCI-H460 > 100 µM | RPMI-8226 54 µM | HT-29 34.4 µM | NCI-H23 > 100 µM | COLO 205 26.7 µM | SF-539 > 100 µM | HCT-116 85.3 µM | RXF 393 > 100 µM | HL-60 71 µM | A549 > 100 µM | KM12 > 100 µM | M19-MEL > 100 µM | NCI-H522 > 10 µM | SNB-19 > 100 µM | LXFL 529 > 100 µM | SR > 100 µM | U-251 > 100 µM | LOX IMVI > 100 µM | SK-MEL-28 83.8 µM | OVCAR-4 > 100 µM | CCRF-CEM > 100 µM | HOP-92 38.9 µM | K562 39.1 µM | OVCAR-8 > 100 µM | DMS-273 > 100 µM | SK-MEL-2 > 100 µM | UACC-257 > 100 µM | SF-295 > 100 µM | MOLT-4 > 100 µM | HOP-62 > 100 µM | UACC-62 > 100 µM | ACHN > 100 µM | KM-20L2 48.4 µM | SW-620 > 100 µM | M14 > 100 µM | SK-MEL-5 56.9 µM | Malme-3M > 100 µM | SNB-75 > 100 µM | HCC 2998 34.8 µM
> 100 µM: HCT-15

COC(=O)C1CCC(C)CC1=O (stereo not given)
> 100 µM: HCT-15
inactive: SF-268 > 100 µM | CAKI-1 > 100 µM | SN12C > 100 µM | SK-OV-3 > 100 µM | RXF 631 > 100 µM | IGROV-1 > 100 µM | 786-0 > 100 µM | OVCAR-3 > 100 µM | XF498 > 100 µM | UO-31 > 100 µM | OVCAR-5 > 100 µM | EKVX > 100 µM | DLD-1 > 100 µM | TK-10 > 100 µM | NCI-H460 > 100 µM | RPMI-8226 > 100 µM | HT-29 > 100 µM | NCI-H23 > 100 µM | COLO 205 > 100 µM | SF-539 > 100 µM | DMS-114 > 100 µM | HCT-116 > 100 µM | RXF 393 > 100 µM | HL-60 > 100 µM | A549 > 100 µM | KM12 > 100 µM | M19-MEL > 100 µM | NCI-H522 > 100 µM | SNB-19 > 100 µM | LXFL 529 > 100 µM | U-251 > 100 µM | LOX IMVI > 100 µM | SNB-78 > 100 µM | SK-MEL-28 > 100 µM | OVCAR-4 > 100 µM | CCRF-CEM > 100 µM | HOP-92 > 100 µM | K562 > 100 µM | OVCAR-8 > 100 µM | DMS-273 > 100 µM | A498 > 100 µM | SK-MEL-2 > 100 µM | UACC-257 > 100 µM | SF-295 > 100 µM | MOLT-4 > 100 µM | HOP-62 99.8 µM | UACC-62 > 100 µM | ACHN > 100 µM | SW-620 > 100 µM | M14 > 100 µM | SK-MEL-5 > 100 µM | Malme-3M > 100 µM | SNB-75 > 100 µM | HCC 2998 > 100 µM

— ChEMBL document CHEMBL1201862, “PubChem BioAssay data set” (2004)
